How the values were obtained:
BT-474 Tam1 [1] = assay: drug sensitivity score (DSS) (DSS (dimensionless)); higher = more sensitive; extreme values may be limits of the assay; settings: 4-OH-tamoxifen in medium 1 µM; 72 h
Experimental: (§1)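 FIMM FO2B library drugs were tested at 5 concentrations (10,000-fold range) for 72 h, with CellTiter-Glo viability normalised to DMSO and benzethonium chloride controls. The Drug Sensitivity Score (DSS) is computed from the fitted logistic dose-response curve (area-based; 0 = inactive). Resistant lines and the 'in 1µM tamoxifen' arms were tested in 1 µM 4-OH-tamoxifen.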

BT-474 Tam2 [2] = assay: as above; settings: 4-OH-tamoxifen in medium 1 µM; 72 h
Experimental: as §1

BT-474 [3] = assay: as above; settings: 72 h
Experimental: as §1

MCF-7 Tam1 [4] = assay: as above; settings: 4-OH-tamoxifen in medium 1 µM; 72 h
Experimental: as §1

MCF-7 [5] = assay: as above; settings: 72 h
Experimental: as §1

T-47D Tam1 [6] = assay: as above; settings: 4-OH-tamoxifen in medium 1 µM; 72 h
Experimental: as §1

T-47D Tam2 = assay: as above; settings: 4-OH-tamoxifen in medium 1 µM; 72 h
Experimental: as §1

T-47D [7] = assay: as above; settings: 72 h
Experimental: as §1

ZR-75-1 Tam1 [8] = assay: as above; settings: 4-OH-tamoxifen in medium 1 µM; 72 h
Experimental: as §1

ZR-75-1 Tam2 [9] = assay: as above; settings: 4-OH-tamoxifen in medium 1 µM; 72 h
Experimental: as §1

ZR-75-1 [10] = assay: as above; settings: 72 h
Experimental: as §1

BT-474 Tam1 [11] = assay: relative IC50 (midpoint of fitted logistic curve, plateau may be below 50% inhibition; CellTiter-Glo viability); higher = less potent; settings: 4-OH-tamoxifen in medium 1 µM; 72 h
Experimental: (§2)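 FIMM FO2B library drugs were plated at 5 concentrations spanning a 10,000-fold range in 384-well plates. Cells were incubated for 72 h at 37 °C and viability was read by CellTiter-Glo, normalised to DMSO (0% inhibition) and 100 µM benzethonium chloride (100% inhibition). IC50 values come from logistic dose-response fits (Breeze pipeline). Tamoxifen-resistant lines and the 'in 1µM tamoxifen' parental arms were tested in medium with 1 µM 4-OH-tamoxifen.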

BT-474 Tam2 [12] = assay: as above; settings: 4-OH-tamoxifen in medium 1 µM; 72 h
Experimental: as §2

BT-474 [13] = assay: as above; settings: 72 h
Experimental: as §2

MCF-7 Tam1 [14] = assay: as above; settings: 4-OH-tamoxifen in medium 1 µM; 72 h
Experimental: as §2

T-47D Tam1 [15] = assay: as above; settings: 4-OH-tamoxifen in medium 1 µM; 72 h
Experimental: as §2

T-47D [16] = assay: as above; settings: 72 h
Experimental: as §2

ZR-75-1 Tam1 [17] = assay: as above; settings: 4-OH-tamoxifen in medium 1 µM; 72 h
Experimental: as §2

ZR-75-1 Tam2 [18] = assay: as above; settings: 4-OH-tamoxifen in medium 1 µM; 72 h
Experimental: as §2

ZR-75-1 [19] = assay: as above; settings: 72 h
Experimental: as §2

MCF-7 [20] = assay: as above; settings: 72 h
Experimental: as §2

| SMILES | drug sensitivity score (BT-474 Tam1 [1]) | drug sensitivity score (BT-474 Tam2 [2]) | drug sensitivity score (BT-474 [3]; 4-OH-tamoxifen in medium 0 µM) | drug sensitivity score (BT-474 [3]; 4-OH-tamoxifen in medium 1 µM) | drug sensitivity score (MCF-7 Tam1 [4]) | drug sensitivity score (MCF-7 [5]; 4-OH-tamoxifen in medium 0 µM) | drug sensitivity score (MCF-7 [5]; 4-OH-tamoxifen in medium 1 µM) | drug sensitivity score (T-47D Tam1 [6]) | drug sensitivity score (T-47D Tam2) | drug sensitivity score (T-47D [7]; 4-OH-tamoxifen in medium 0 µM) | drug sensitivity score (T-47D [7]; 4-OH-tamoxifen in medium 1 µM) | drug sensitivity score (ZR-75-1 Tam1 [8]) | drug sensitivity score (ZR-75-1 Tam2 [9]) | drug sensitivity score (ZR-75-1 [10]; 4-OH-tamoxifen in medium 0 µM) | drug sensitivity score (ZR-75-1 [10]; 4-OH-tamoxifen in medium 1 µM) | relative IC50 (BT-474 Tam1 [11]) [µM] | relative IC50 (BT-474 Tam2 [12]) [µM] | relative IC50 (BT-474 [13]; 4-OH-tamoxifen in medium 0 µM) [µM] | relative IC50 (BT-474 [13]; 4-OH-tamoxifen in medium 1 µM) [µM] | relative IC50 (MCF-7 Tam1 [14]) [µM] | relative IC50 (T-47D Tam1 [15]) [µM] | relative IC50 (T-47D [16]; 4-OH-tamoxifen in medium 0 µM) [µM] | relative IC50 (T-47D [16]; 4-OH-tamoxifen in medium 1 µM) [µM] | relative IC50 (ZR-75-1 Tam1 [17]) [µM] | relative IC50 (ZR-75-1 Tam2 [18]) [µM] | relative IC50 (ZR-75-1 [19]; 4-OH-tamoxifen in medium 0 µM) [µM] | relative IC50 (MCF-7 [20]; 4-OH-tamoxifen in medium 0 µM) [µM] | relative IC50 (ZR-75-1 [19]; 4-OH-tamoxifen in medium 1 µM) [µM] | relative IC50 (MCF-7 [20]; 4-OH-tamoxifen in medium 1 µM) [µM] |
| --- | --- | --- | --- | --- | --- | --- | --- | --- | --- | --- | --- | --- | --- | --- | --- | --- | --- | --- | --- | --- | --- | --- | --- | --- | --- | --- | --- | --- | --- |
| CCc1c2c(nc3ccc(OC(=O)N4CCC(N5CCCCC5)CC4)cc13)-c1cc3c(c(=O)n1C2)COC(=O)[C@]3(O)CC [Irinotecan] | 0 | 0 | 0 | 0 | 0 | 1.56 | 1.5 | 2.72 | 0.581 | 4.39 | 0 | 3.21 | 3.94 | 3.43 | 1.34 | > 10 | > 10 | > 10 | > 10 | > 10 | 1.73 | 1.24 | > 10 | 1.39 | 1.59 | 1.71 | – | – | – |
| O=C(c1cc(Cc2n[nH]c(=O)c3ccccc23)ccc1F)N1CCN(C(=O)C2CC2)CC1 [Olaparib] | 0.0009 | 0 | 0 | 0 | 0 | 0 | 0.285 | 0 | 0.0505 | 0 | 0 | 0 | 0 | 0 | 0 | – | > 10 | > 10 | > 10 | > 10 | > 10 | – | > 10 | > 10 | > 10 | > 10 | > 10 | > 10 | – |
| C[C@@H]1C[C@H]2[C@@H]3CCC4=CC(=O)C=C[C@]4(C)[C@@]3(F)[C@@H](O)C[C@]2(C)[C@@]1(O)C(=O)CO [Dexamethasone  (Decadron)] | 0 | 0 | 0 | 0 | 0 | 0 | 1.88 | 0 | 0 | 0 | 0 | 0 | 0.209 | 0 | 0 | – | > 10 | > 10 | > 10 | > 10 | > 10 | > 10 | > 10 | > 10 | – | > 10 | > 10 | > 10 | – |
| Nc1ccn([C@@H]2O[C@H](CO)[C@@H](O)C2(F)F)c(=O)n1 [Gemcitabine] | 0 | 0 | 0 | 0 | 0 | 5.69 | 0.509 | 0 | 0.815 | 4.36 | 0 | 0 | 0.493 | 6.28 | 0.865 | > 1 | > 1 | > 1 | > 1 | > 1 | > 1 | 0.0604 | > 1 | > 1 | – | – | – | – | – |
| CN1CCN(CCOc2cc(OC3CCOCC3)c3c(Nc4c(Cl)ccc5c4OCO5)ncnc3c2)CC1 [Saracatinib] | 10.8 | 10.1 | 3.72 | 9.8 | 0 | 2.15 | 0.814 | 5.37 | 3.11 | 1.32 | 0 | 0 | 0 | 0 | 0 | 1.17 | 1.35 | 2.15 | 1.29 | > 10 | 0.504 | – | > 10 | > 10 | > 10 | > 10 | – | > 10 | – |
| N[C@@H](CSC(c1ccccc1)(c1ccccc1)c1ccccc1)C(=O)O [S-trityl-L-cysteine] | 1.68 | 0 | 0 | 1.41 | 0 | 0 | 1.69 | 0 | 0.0046 | 0.0068 | 0 | 0 | 0.627 | 1.65 | 0 | – | > 40 | 40 | – | > 40 | > 40 | – | > 40 | > 40 | – | – | > 40 | > 40 | – |
| CC1(C)CCC(c2ccc(Cl)cc2)=C(CN2CCN(c3ccc(C(=O)NS(=O)(=O)c4ccc(N[C@H](CCN5CCOCC5)CSc5ccccc5)c(S(=O)(=O)C(F)(F)F)c4)cc3)CC2)C1 [Navitoclax (ABT-263)] | 2.79 | 3.9 | 0 | 4.26 | 0 | 1.6 | 0.949 | 14.1 | 1.65 | 0 | 0 | 0 | 0 | 0 | 0 | 1.15 | 0.723 | – | 1.61 | > 10 | 0.326 | > 10 | > 10 | > 10 | > 10 | > 10 | – | > 10 | – |
| Cc1ccc(NC(=O)c2ccc(CN3CCN(C)CC3)cc2)cc1Nc1nccc(-c2cccnc2)n1 [Imatinib] | 1.97 | 1.21 | 0 | 0.471 | 0 | 0 | 0 | 0 | 0.454 | 0 | 0 | 0 | 0 | 0 | 0.933 | 4.03 | – | > 10 | – | > 10 | > 10 | – | > 10 | > 10 | > 10 | > 10 | > 10 | – | – |
| CO[C@H]1C[C@@H]2CC[C@@H](C)[C@@](O)(O2)C(=O)C(=O)N2CCCC[C@H]2C(=O)O[C@H]([C@H](C)C[C@@H]2CC[C@@H](O)[C@H](OC)C2)CC(=O)[C@H](C)/C=C(\C)[C@@H](O)[C@@H](OC)C(=O)[C@H](C)C[C@H](C)/C=C/C=C/C=C/1C [Sirolimus (Rapamycin)] | 0 | 1.85 | 5.15 | 1.96 | 0 | 12.7 | 11.1 | 8.59 | 3.53 | 10.6 | 0.392 | 8.75 | 12.4 | 12.7 | 9.39 | > 1 | – | – | – | > 1 | 0.00524 | 0.00107 | – | 0.00448 | 0.002 | 0.00184 | 0.00479 | 0.00235 | 0.00486 |
| Cc1ccc(-c2cc(C(F)(F)F)nn2-c2ccc(S(N)(=O)=O)cc2)cc1 [Celecoxib] | 0.0337 | 0 | 0 | 0 | 0 | 0.0979 | 0 | 0 | 0.335 | 0 | 0 | 0 | 0 | 0 | 0.0083 | – | > 10 | > 10 | > 10 | > 10 | > 10 | > 10 | > 10 | > 10 | > 10 | > 10 | – | – | > 10 |
| NC(=O)c1ccc(I)c([N+](=O)[O-])c1 | 0 | 0 | 0 | 0 | 0 | 0 | 0 | 0 | 0.229 | 0 | 0 | 0 | 0 | 0 | 0 | > 10 | > 10 | > 10 | > 10 | > 10 | > 10 | > 10 | > 10 | – | > 10 | > 10 | > 10 | > 10 | > 10 |
| COc1cc2nccc(Oc3ccc(NC(=O)C4(C(=O)Nc5ccc(F)cc5)CC4)cc3)c2cc1OC [Cabozantinib (XL184)] | 0.113 | 0 | 0 | 0.138 | 0 | 0 | 0.282 | 0 | 0.0065 | 0 | 0 | 0.0383 | 0 | 0 | 0 | – | > 1 | > 1 | – | > 1 | > 1 | > 1 | > 1 | – | > 1 | > 1 | > 1 | > 1 | – |
| COC(=O)c1ccc2c(c1)NC(=O)/C2=C(\Nc1ccc(N(C)C(=O)CN2CCN(C)CC2)cc1)c1ccccc1 [Nintedanib (BIBF 1120)] | 7.37 | 0 | 0 | 3.83 | 0 | 0.34 | 0 | 0 | 0.209 | 0 | 0 | 0 | 0 | 0 | 0 | 0.155 | > 10 | > 10 | – | > 10 | > 10 | > 10 | > 10 | – | > 10 | > 10 | – | > 10 | > 10 |
| Cn1c(=O)n(-c2ccc(C(C)(C)C#N)cc2)c2c3cc(-c4cnc5ccccc5c4)ccc3ncc21 [Dactolisib (NVP-BEZ235)] | 4.98 | 4.69 | 6.54 | 5.55 | 3.91 | 18.3 | 11.4 | 13.4 | 4.46 | 10.4 | 7.65 | 12.4 | 12.6 | 12.9 | 10.4 | 0.0863 | – | – | 0.0609 | 0.0527 | 0.00744 | 0.0278 | 0.117 | 0.00716 | 0.0139 | 0.0093 | 0.00668 | 0.00917 | 0.00894 |
| NC(=O)c1cccc2cn(-c3ccc([C@@H]4CCCNC4)cc3)nc12 [MK-4827] | 2.21 | 0.615 | 0 | 0 | 0 | 0.385 | 1.11 | 0 | 0.764 | 0.34 | 1.04 | 0 | 0 | 0.0039 | 0 | 3.06 | – | > 10 | > 10 | > 10 | > 10 | – | – | > 10 | > 10 | – | – | > 10 | – |
